In data set [1] the test system is HIV-1Ba-L. As to the kind of experiment: Anti-HIV efficacy in human monocyte/macrophages (p24 ELISA). In kind it is cell-based. How it is done: SA-101A and SA-101B were tested for antiviral activity against HIV-1 virus in peripheral blood monocytes/macrophages. Monocytes/macrophages were derived from normal HIV-1 negative donors, and cultured under conditions which promote cell survival and HIV replication. Fresh human blood was obtained commercially from Biological Specialty Corporation (Colmar, Pa.). The low passage, monocytropic, clinical isolate HIV-1Ba-L (Subtype B, R5) was obtained from the NIAID AIDS Research and Reference Reagent Program. A pre-titered aliquot of HIV 1Ba-L was removed from the freezer (−80° C.) and thawed rapidly to room temperature in a biological safety cabinet immediately before use. Phytohemagglutinin (PHA-P) was obtained from Sigma (St. Louis, Mo.) and recombinant IL-2 was obtained from R&D Systems Inc. (Minneapolis, Minn.).
Compound preparation: Compounds SA-101A and SA-101B were in powder form and solubilized in DMSO prior to use. AZT (Sigma), solubilized in sterile dH2O, was used as the positive antiviral control. The compounds were tested at a 100 μg/mL high-test concentration; AZT was tested at a 1,000 ηM high-test concentration. Compound SA-101B was tested in the presence of 40% human AB serum.
Monocyte isolation and culture. Peripheral blood monocytes were isolated from screened donors sero-negative for HIV and HBV. Cells were pelleted by low speed centrifugation and re-suspended in PBS to remove contaminating platelets. The leukophoresed blood was then diluted with Dulbecco's phosphate buffered saline (PBS) and layered over of Lymphocyte Separation Medium (LSM; Cellgro® by Mediatech, Inc.; density 1.078+/−0.002 g/ml; Cat. # 85-072-CL) in a 50 mL centrifuge tube and then centrifuged. Banded PBMCs were gently aspirated from the interface and subsequently washed with PBS by low speed centrifugation. The cells were diluted to 4×10^6 cells per mL in DMEM without phenol red supplemented with 10% heat inactivated human pooled AB serum, 2 mM L-glutamine, 100 U/mL penicillin and 100 μg/mL streptomycin. Monocytes/macrophages were allowed to adhere to the interior 60 wells (100 μL/well) of a 96 well flat bottomed plate for 2 to 18 hours at 37° C., 5% CO2. The exterior wells were filled with 200 μL of sterile DPBS to serve as a humidity barrier. Following adherence of cells, the cultures were washed with sterile DPBS to remove non-adherent cells (lymphocytes and contaminating RBCs). […]
Anti-HIV efficacy evaluation in human monocyte/macrophages. […] At assay termination, virus replication was measured by collecting cell-free supernatant samples, which were analyzed for HIV p24 antigen content using a commercially available p24 ELISA assay (Coulter). […]

Data set [2] can be described thus: Solubility in pH controlled solutions and intravenous formulations. It counts as physicochemical. The procedure: Solubility of prostratin and SA-101B was measured in pH controlled solutions and in various representative formulations, in particular, intravenous formulations, where solubility is often a limiting factor.
Data set [3] relates to Hepatitis B Virus. As to the kind of experiment: HepG2 2.2.15 antiviral assay (HBV DNA, TaqMan PCR). The note with it: HepG2 2.2.15 cells. It counts as cell-based, Hepatitis B (HBV). How it is done: Compounds SA-101A and SA-101B were evaluated for effect on Hepatitis B Virus replications using a cell culture based HBV replication system.
Compound preparation. The compounds were prepared in powder form (˜1 mg) and solubilized in DMSO prior to use. Compound 3TC was used as positive antiviral control.
HepG2 2.2.15 Antiviral Assay. The assay developed is similar to that described ion the literature (Korba et al., 1991, Antiviral Res. 15: 217-228; Korba et al., 1992, Antiviral Res. 19: 55-70) with the exception that viral DNA detection and quantification have been improved and simplified (Buckwold et al., 2004, Antiviral Res. 61(1): 57-62). Briefly, HepG2-2.2.15 cells are plated in 96-well microtiter plates. […] Six days following the initial administration of the test compound, the cell culture supernatant is collected, treated with pronase and DNAse and then used in a real-time quantitative TaqMan PCR assay. The PCR-amplified HBV DNA is detected in real-time by monitoring increases in fluorescence signals that result from the exonucleolytic degradation of a quenched fluorescent probe molecule that hybridizes to the amplified HBV DNA. […] Antiviral activity is calculated from the reduction in HBV DNA levels (IC50). […] The therapeutic index (TI) is calculated as TC50/IC50.
In general terms: Real-time PCR tracks product formation cycle by cycle.

Values after ≈ are worked out from the molar mass of the structure shown. Where two headings read alike, the source gives them in different places. Bounds are passed on as bounds.

For the compound `CC(=O)O[C@@]12C[C@@H](C)[C@@]3(O)[C@@H](C=C(CO)C[C@]4(O)C(=O)C(C)=C[C@@H]34)[C@@H]1C2(C)C` [SA-101A, 12-deoxyphorbol 13-acetate], the IC50 in data set [1] (Human immunodeficiency virus 1, Macrophage, read-out: IC50) is 0.11 µg/mL (≈ 0.282 µM). The IC90 in data set [1] (Human immunodeficiency virus 1, Macrophage, read-out: IC90) came to 0.28 µg/mL (≈ 0.717 µM). The solubility was 330 µg/mL (≈ 845 µM) in data set [2] (5% dextrose (intravenous formulation), saline or isotonic, read-out: Solubility 5% Dextrose); 370 µg/mL (≈ 948 µM) in data set [2] (pH controlled solution, pH 1, simulated gastric fluid, read-out: Solubility pH 1); 370 µg/mL (≈ 948 µM) in data set [2] (pH controlled solution, pH 2, simulated gastric fluid, read-out: Solubility pH 2); 450 µg/mL (≈ 1150 µM) in data set [2] (pH controlled solution, pH 5, aqueous buffer, read-out: Solubility pH 5); 420 µg/mL (≈ 1080 µM) in data set [2] (pH controlled solution, pH 7.5, aqueous buffer, read-out: Solubility pH 7.5); 390 µg/mL (≈ 999 µM) in data set [2] (pH controlled solution, pH 9, aqueous buffer, read-out: Solubility pH 9). In addition, in data set [2] (saline (0.9% NaCl) (intravenous formulation), saline or isotonic, read-out: Solubility Saline (0.9% NaCl)), the solubility turned out to be 340 µg/mL (≈ 871 µM). The “EC50 (inhibition of HBV)” value in data set [3] is “did not achieve EC50 values”.

In data set [1] (40% Human AB serum), `CC(=O)OC12CC(C)C3(O)C(C=C(COC(=O)CCC(=O)O)CC4(O)C(=O)C(C)=CC43)C1C2(C)C` (stereo not drawn) [SA-101B, Prostratin Succinate] registered an IC50 of 0.28 µg/mL and an IC90 of 7.29 µg/mL. Further, the “Solubility 5% Dextrose” value in data set [2] (5% Dextrose) was greater than 10000 µg/mL. In addition, the “Solubility Saline (0.9% NaCl)” value in data set [2] (Saline (0.9% NaCl)) is greater than 10000 µg/mL. In addition, the “Solubility compared with prostratin” value in data set [2] (all media) is given as “better solubility than prostratin”. Further, the “Solubility pH 1” value in data set [2] (pH 1) came out at 1.21 mg/mL. Besides, the “Solubility pH 2” value in data set [2] (pH 2) is given as 4.46 mg/mL. Also, the “Solubility pH 5” value in data set [2] (pH 5) is 7.72 mg/mL. In addition, in data set [2] (pH 7.5), the “Solubility pH 7.5” value is 11.20 mg/mL. Also, the “Solubility pH 9” value in data set [2] (pH 9) is recorded as 12.08 mg/mL. For the same compound, the “EC50 (inhibition of HBV)” value in data set [3] is “did not achieve EC50 values”.

One may read the IC50 as the concentration needed to halve the response being measured. A word on the IC90: it is the concentration needed for an effect of 90%. In general, solubility refers to the dissolved amount per volume that the medium holds.

The record behind these values is US8022103B2, “Ester prodrugs of prostratin and related phorbol compounds” (Salvia Sciences, Inc., priority 2005, dated 2011).
